# Legend:
# Format in all cases: cell-based
# M3 muscarinic receptor = target: T1, M3 muscarinic receptor (Homo sapiens, UniProt P20309); experiment: Functional mobilization of intracellular calcium (FLIPR), M3-CHO cells; conditions: for M3 Activity: M3-CHO cells, calcium mobilization (FLIPR)
# T1 construct: expressed in transfected cells; host or cells: CHO (M3-CHO)
# In short: (§1)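 Calcium mobilisation read by FLIPR over 60 s (ex 488/em 540 nm) in recombinant muscarinic CHO lines loaded with calcium dye plus 1 mM probenecid. Compounds tested as agonists alone, or as inhibitors against EC80 carbachol after 15 min pre-incubation or co-addition; 0.5% DMSO; efficacy scaled to carbachol maximal response.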
# M4 muscarinic receptor = target: T2, M4 muscarinic receptor (Homo sapiens, UniProt P08173); experiment: Functional mobilization of intracellular calcium (FLIPR), M4-CHO cells; conditions: for M4 Activity: M4-CHO cells, calcium mobilization (FLIPR)
# T2 construct: expressed in transfected cells; host or cells: CHO (M4-CHO)
# T2 sequence (P08173 1-479): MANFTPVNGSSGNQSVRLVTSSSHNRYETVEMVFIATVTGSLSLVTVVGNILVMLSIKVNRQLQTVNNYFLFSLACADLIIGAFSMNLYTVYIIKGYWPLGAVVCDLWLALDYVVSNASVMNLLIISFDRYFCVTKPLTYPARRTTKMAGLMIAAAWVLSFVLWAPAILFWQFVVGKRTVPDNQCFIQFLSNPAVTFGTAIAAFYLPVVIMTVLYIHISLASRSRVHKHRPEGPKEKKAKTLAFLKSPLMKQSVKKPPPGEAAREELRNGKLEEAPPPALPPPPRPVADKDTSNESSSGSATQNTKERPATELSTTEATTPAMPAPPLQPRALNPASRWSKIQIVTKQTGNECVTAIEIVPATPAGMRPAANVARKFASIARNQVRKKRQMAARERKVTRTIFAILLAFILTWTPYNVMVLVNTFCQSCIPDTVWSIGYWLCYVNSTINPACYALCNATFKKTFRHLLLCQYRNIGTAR
# In short: as §1
# M2 muscarinic receptor = target: T3, M2 muscarinic receptor (Homo sapiens, UniProt P08172); experiment: Functional mobilization of intracellular calcium (FLIPR), M2-CHO cells; conditions: for M2 Activity: M2-CHO cells, calcium mobilization (FLIPR)
# T3 construct: expressed in transfected cells; host or cells: CHO (M2-CHO)
# T3 sequence (P08172 1-466): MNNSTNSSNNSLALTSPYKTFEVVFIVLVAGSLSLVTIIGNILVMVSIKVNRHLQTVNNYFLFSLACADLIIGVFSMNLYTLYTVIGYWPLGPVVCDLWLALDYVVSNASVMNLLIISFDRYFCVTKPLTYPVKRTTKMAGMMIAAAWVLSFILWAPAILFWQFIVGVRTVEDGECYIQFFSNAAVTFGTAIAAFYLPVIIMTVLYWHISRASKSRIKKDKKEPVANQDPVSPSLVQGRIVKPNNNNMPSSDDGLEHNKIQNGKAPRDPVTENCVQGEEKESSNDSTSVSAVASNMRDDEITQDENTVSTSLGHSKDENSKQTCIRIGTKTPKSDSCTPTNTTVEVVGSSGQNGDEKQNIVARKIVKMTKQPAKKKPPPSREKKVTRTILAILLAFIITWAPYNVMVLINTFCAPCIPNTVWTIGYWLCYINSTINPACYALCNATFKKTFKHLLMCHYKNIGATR
# In short: as §1
# M1 muscarinic receptor = target: T4, M1 muscarinic receptor (Homo sapiens, UniProt P11229); experiment: Functional mobilization of intracellular calcium (FLIPR), M1-CHO cells; conditions: for M1 Activity: M1-CHO cells, calcium mobilization (FLIPR)
# T4 construct: expressed in transfected cells; host or cells: CHO (M1-CHO)
# T4 sequence (P11229 1-460): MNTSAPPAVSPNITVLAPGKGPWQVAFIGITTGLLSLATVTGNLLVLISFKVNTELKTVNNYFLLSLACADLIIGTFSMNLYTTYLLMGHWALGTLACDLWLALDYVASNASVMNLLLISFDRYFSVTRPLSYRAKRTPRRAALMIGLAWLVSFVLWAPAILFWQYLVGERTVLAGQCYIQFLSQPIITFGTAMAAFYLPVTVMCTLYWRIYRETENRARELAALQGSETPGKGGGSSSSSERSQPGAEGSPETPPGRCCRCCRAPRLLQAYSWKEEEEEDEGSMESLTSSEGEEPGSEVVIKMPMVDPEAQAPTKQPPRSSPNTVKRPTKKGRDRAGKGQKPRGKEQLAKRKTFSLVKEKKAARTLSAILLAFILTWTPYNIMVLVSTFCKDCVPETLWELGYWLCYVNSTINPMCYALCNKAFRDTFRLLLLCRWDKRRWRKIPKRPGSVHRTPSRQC
# In short: as §1
# [1] = 100% efficacy = maximum response obtained with the Carbachol control
# T1 sequence (P20309 whole entry): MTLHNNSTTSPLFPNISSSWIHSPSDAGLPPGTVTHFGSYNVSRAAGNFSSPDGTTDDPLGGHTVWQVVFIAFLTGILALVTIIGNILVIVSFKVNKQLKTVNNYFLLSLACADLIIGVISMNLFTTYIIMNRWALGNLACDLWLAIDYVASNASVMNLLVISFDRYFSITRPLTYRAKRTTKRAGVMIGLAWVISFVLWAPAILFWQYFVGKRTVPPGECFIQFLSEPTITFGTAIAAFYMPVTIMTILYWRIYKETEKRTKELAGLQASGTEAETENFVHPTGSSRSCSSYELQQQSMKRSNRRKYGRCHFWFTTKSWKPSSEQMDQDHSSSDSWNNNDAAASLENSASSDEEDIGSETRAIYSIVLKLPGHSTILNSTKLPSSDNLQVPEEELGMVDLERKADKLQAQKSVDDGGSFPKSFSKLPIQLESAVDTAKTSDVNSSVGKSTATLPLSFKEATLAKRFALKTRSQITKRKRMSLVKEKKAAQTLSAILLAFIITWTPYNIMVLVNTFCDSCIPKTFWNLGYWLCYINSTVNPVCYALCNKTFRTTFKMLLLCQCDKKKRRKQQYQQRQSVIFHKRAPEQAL
Compound,Emax (M3 muscarinic receptor; [1]) [%],Emax (M4 muscarinic receptor; [1]) [%],Emax (M2 muscarinic receptor; [1]) [%],Emax (M1 muscarinic receptor; [1]) [%],M3 Activity (M3 muscarinic receptor),M4 Activity (M4 muscarinic receptor),M2 Activity (M2 muscarinic receptor),M1 Activity (M1 muscarinic receptor),M3 Efficacy (M3 muscarinic receptor; [1]),M4 Efficacy (M4 muscarinic receptor; [1]),M2 Efficacy (M2 muscarinic receptor; [1]),M1 Efficacy (M1 muscarinic receptor; [1])
CCOC(=O)N1C2CCC1CC(N1CCC(c3cc(F)ccc3OC)CC1)C2 (stereo not shown) [Compound 330],< 25,25 to 100,25 to 100,25 to 100,+ (activity was measured to be greater than 5.0 μM),+++ (activity was measured to be less than 1.0 μM),+++ (activity was measured to be less than 1.0 μM),+++ (activity was measured to be less than 1.0 μM),,,,
Cc1c(C2CCN(C3CCOCC3)CC2)cccc1C(F)(F)F [Compound 333],< 25,25 to 100,< 25,< 25,+ (activity was measured to be greater than 5.0 μM),++ (activity was measured to be from 1.0 μM to 5.0 μM),+ (activity was measured to be greater than 5.0 μM),+ (activity was measured to be greater than 5.0 μM),,,,
CCOC(=O)N1C2CCC1CC(N1CCC(F)(c3cc(F)ccc3OC)CC1)C2 (stereo not shown) [Compound 334],< 25,25 to 100,< 25,25 to 100,+ (activity was measured to be greater than 5.0 μM),+++ (activity was measured to be less than 1.0 μM),+ (activity was measured to be greater than 5.0 μM),+++ (activity was measured to be less than 1.0 μM),,,,
COc1ccc(Cl)cc1C1CCN(C2CCC(=NOc3ccccc3)CC2)CC1 (stereo not shown) [Compound 336],,,,,+ (activity was measured to be greater than 5.0 μM),+++ (activity was measured to be less than 1.0 μM),+ (activity was measured to be greater than 5.0 μM),++ (activity was measured to be from 1.0 μM to 5.0 μM),+ (efficacy was calculated to be less than 25%),++ (efficacy was calculated to be from 100% to 25%),+ (efficacy was calculated to be less than 25%),++ (efficacy was calculated to be from 100% to 25%)

# The next lines start with results.
Emax (M3 muscarinic receptor; [1]) [%],Emax (M4 muscarinic receptor; [1]) [%],Emax (M2 muscarinic receptor; [1]) [%],Emax (M1 muscarinic receptor; [1]) [%],Compound,M3 Activity (M3 muscarinic receptor),M4 Activity (M4 muscarinic receptor),M2 Activity (M2 muscarinic receptor),M1 Activity (M1 muscarinic receptor),M3 Efficacy (M3 muscarinic receptor; [1]),M4 Efficacy (M4 muscarinic receptor; [1]),M2 Efficacy (M2 muscarinic receptor; [1]),M1 Efficacy (M1 muscarinic receptor; [1])
< 25,25 to 100,< 25,25 to 100,"COc1ccc(Cl)cc1C1CCN(C2CCC3(CC2)OCCO3)CC1 [Compound 331, 4-(5-chloro-2-methoxyphenyl)-1-(1,4-dioxaspiro[4.5]decan-8-yl)piperidine]",+ (activity was measured to be greater than 5.0 μM),+++ (activity was measured to be less than 1.0 μM),+ (activity was measured to be greater than 5.0 μM),+ (activity was measured to be greater than 5.0 μM),,,,
< 25,25 to 100,< 25,25 to 100,COc1ccc(-c2ccc(S(=O)(=O)N3CCCC3)cc2)cc1C1CCN(C2CCCCC2)CC1 [Compound 332],+ (activity was measured to be greater than 5.0 μM),+ (activity was measured to be greater than 5.0 μM),+ (activity was measured to be greater than 5.0 μM),+ (activity was measured to be greater than 5.0 μM),,,,
< 25,25 to 100,< 25,25 to 100,CCOC(=O)N1CCC(CN2CCC(c3cccc(C(F)(F)F)c3C)CC2)CC1 [Compound 337],+ (activity was measured to be greater than 5.0 μM),+++ (activity was measured to be less than 1.0 μM),+ (activity was measured to be greater than 5.0 μM),++ (activity was measured to be from 1.0 μM to 5.0 μM),,,,
< 25,25 to 100,< 25,25 to 100,COc1ccccc1C1CCN(C2CC(c3ccccc3)C(c3ccccc3)C2)CC1 (stereo not shown) [Compound 339],+ (activity was measured to be greater than 5.0 μM),+ (activity was measured to be greater than 5.0 μM),+ (activity was measured to be greater than 5.0 μM),+ (activity was measured to be greater than 5.0 μM),,,,

# Reference: US7880007B2, “Bicyclic substituted phenyl piperidine modulators of muscarinic receptors” (Vertex Pharmaceuticals Incorporated, priority 2004, dated 2011)
